Measurements as given in patent US20210261964A1, “LIPID PARTICLE CONTAINING A-TYPE CpG OLIGODEOXYNUCLEOTIDE” (THE RESEARCH FOUNDATION FOR MICROBIAL DISEASES OF OSAKA …, priority 2018, published 2021).

What was measured:
[1] = test system: Bone marrow cells from WT, TLR7KO, and TLR9KO mice; assay: TLR9 dependency: IFN-I production in bone marrow cells, B16-Blue sensor cell bioassay; assay type: cell-based, mouse; conditions: R848 1 ug/mL; 24 hours
Excerpt: (§1) The content of each lipid per 100 mass % of lipids constituting the lipid particles is as follows: DOTAP: 50 mass %, DPPC: 19.5 mass %, cholesterol: 30 mass %, and DSPE-PEG (2 k (PEG chain length))-OMe: 0.5 mass % or 3.0 mass %. The ratio (N/P) of the number of nitrogen atoms (N) in the lipids constituting the lipid particles to the number of phosphorus atoms (D35) (P) in the nucleic acid was set to 3. A D35-containing aqueous solution and a lipid-containing ethanol solution were mixed using the NanoAssemblr (produced by Precision NanoSystems) to obtain lipid nanoparticles, which were then dialyzed against a 5% glucose aqueous solution. In this Test Example and the following Test Examples, the D35-containing lipid nanoparticles obtained here were used.
(§2) Bone marrow cells were prepared from each of WT, TLR7KO, and TLR9KO mice, and stimulated with R848 (TLR7/8 agonist; medium final concentration: 1 ug/mL), D35 (TLR9 agonist; medium final concentration: 10 uM=63.4 ug/mL), and D35-containing lipid nanoparticles (medium final concentration in terms of D35: 1 μg/mL), followed by culturing for 24 hours. Then, the amounts of IFN-I and IL-6 in the culture supernatant were quantified by a biological activity measurement method using murine type I IFNs sensor cells (B16-Blue IFN-α/a cells) and by the usual ELISA method, respectively.

[2] = test system: Bone marrow cells from WT, TLR7KO, and TLR9KO mice; assay: TLR9 dependency: IL-6 production in bone marrow cells, ELISA; assay type: cell-based, mouse; conditions: R848 1 ug/mL, D35 10 uM=63.4 ug/mL, nanoparticles 1 μg/mL in terms of D35, 24 hours; for IL-6 production in TLR7KO: TLR7KO bone marrow cells; for IL-6 production in TLR9KO: TLR9KO bone marrow cells
Excerpt: as §1, §2

[3] = test system: MC38 mouse colorectal cancer-derived tumor; assay: MC38 mouse colorectal cancer-derived tumor model, tumor size; assay type: in vivo; conditions: Test Example 6, FIG. 6: intratumoral, days 9, 11, 13, 15, 17; 4.5 ug/shot D35; effect on days 17 and 21
Experimental: On days 9, 11, 13, 15, and 17 after subcutaneous transplantation of MC38 (1×10^6 cells), a pharmaceutical agent (D35 or D35-containing lipid nanoparticles (DSPE-PEG-OMe content: 0.5 mass %)) was intratumorally administered 5 times in total. Then, the tumor size was measured. The amount of D35 nucleic acid administered at one time was adjusted to 4.5 ug/shot.
On days 9, 11, 13, 15, and 17 after subcutaneous transplantation of MC38 (1×10^6 cells), D35-containing lipid nanoparticles (DSPE-PEG-OMe content: 0.5 mass %) were intratumorally administered 5 times in total. Then, the tumor size was measured. Further, in order to deplete CD8T cells, anti-CD8a antibody (100 ug/shot) or control antibody (100 ug/shot) was intraperitoneally administered on days 6 and 13 after subcutaneous transplantation. The amount of D35 nucleic acid administered at one time was adjusted to 4.5 ug/shot.
On days 9, 11, 13, 15, and 17 after subcutaneous transplantation of MC38 (1×10^6 cells), a pharmaceutical agent (D35 or D35-containing lipid nanoparticles (DSPE-PEG-OMe content: 0.5 mass %)) was administered intravenously 5 times in total. Then, the tumor size was measured. […]
On days 9, 11, 13, 15, and 17 after subcutaneous transplantation of MC38 (1×10^6 cells), D35-containing lipid nanoparticles (DSPE-PEG-OMe content: 0.5 mass %) were administered intravenously 5 times in total. Then, the tumor size was measured. […]

Compound: CCOCc1nc2c(N)nc3ccccc3c2n1CC(C)(C)O [R848]
- IFN-I production [1]: very weak
- IL-6 production in TLR7KO [2]: disappeared
- IL-6 production in TLR9KO [2]: did not disappear

Compound: G_G_TGCATCGATGCAGGGG_G_G (DNA GGTGCATCGATGCAGGGGGG; DNA, linkages s2 o15 s2 (s phosphorothioate, o phosphodiester), methylation of C not given here; formulated in lipid nanoparticles) [D35, A-type CpG oligodeoxynucleotide, TLR9 agonist, not complexed with lipids]
- tumor size [3]: No effect was observed
- IL-6 production in TLR7KO [2]: did not disappear
- IL-6 production in TLR9KO [2]: disappeared almost completely
